Results taken from patent US20230077514A1, “METHODS FOR MODULATING CALORIE CONSUMPTION” (Duke University, priority 2020, published 2023).
“Also recorded” adds a separate entry of the source.

Tests used:
P2 purinoceptor = experiment: Vagal nerve recording with P2 purinoceptor antagonist; assay type: in vivo, mice; details: PPADS 25 mg/kg
Excerpt: Margolskee, J. Biol. Chem. 277(1): 1-4 (2002); Lu et al., Nature Com. 10(1): (2019). […] (FIG. 33, FIG. 36, and FIG. 37).

cervical vagus nerve = experiment: Whole nerve electrophysiology of the cervical vagus during duodenal sugar perfusion; assay type: in vivo, mice; details: for vagal response (firing) to intraduodenal sugar vs baseline: wild-type mice, sucrose 300 mM, D-glucose 150 mM, fructose 150 mM, galactose 150 mM, maltodextrin 8%, α-MGP 150 mM, sucralose 15 mM, acesulfame K 15 mM, saccharin 15 mM
Protocol: FIG. 1. […] Model: sugars are perfused into the duodenal lumen while nerve activity is recorded from the cervical vagus of anesthetized wild-type mice.
The proximal duodenum was perfused with sugars, thus bypassing any gustatory or gastric activation. Sugars were tested based on the following properties: both caloric content and sweet taste (sucrose [300 mM], D-glucose [150 mM], […], galactose [150 mM]), calorie-only (maltodextrin [8%], alpha-methylglucopyranoside (α-MGP) [150 mM]), or taste-only (sucralose [15 mM], acesulfame-K [15 mM], saccharin [15 mM]) (FIG. 1, FIG. 2, FIG. 3, FIG. 4).

duodenal Cck cells = experiment: Vagal recording with intraluminal 532 nm laser silencing of duodenal Cck (neuropod) cells; assay type: in vivo; details: Cck_Halo mice; sucrose 300 mM, α-mgp 150 mM, sucralose 15 mM
Protocol: FIG. 9. Model: intraluminal 532 nm laser activates NpH3 chloride channels to silence duodenal Cck cells in CckCRE_NpH3 mice.
Using whole nerve electrophysiology of the cervical vagus nerve, it was confirmed that vagal activity increases in the presence of luminal sugars. Kaelberer et al., Science 361 (6408) (2018). The proximal duodenum was perfused with sugars, thus bypassing any gustatory or gastric activation. Sugars were tested based on the following properties: both caloric content and sweet taste (sucrose [300 mM], D-glucose [150 mM], fructose [150 mM], galactose [150 mM]), calorie-only (maltodextrin [8%], alpha-methylglucopyranoside (α-MGP) [150 mM]), or taste-only (sucralose [15 mM], acesulfame-K [15 mM], saccharin [15 mM]) (FIG. 1, FIG. 2, FIG. 3, FIG. 4). […] Intraluminal application of the 532 nm laser eliminated the vagal response to sucrose [300 mM], α-mgp [150 mM], and sucralose [15 mM] (n ≥ 5, p < 0.001) (FIG. 10 and FIG. 11; laser activation and wild-type controls). Thus, neuropod cells are required to sense both the calorie and taste properties of sugar and communicate these signals onto vagal neurons.
Cck neuropod cells in the duodenum express receptors for fatty acids (FIG. 69), analyzed by bulk sequencing Cck-positive and Cck-negative epithelial cells in the duodenum of CckGFP mice. Thus, CCK cells in the duodenum may signal the presence of fatty acids to the vagus nerve. To test this, the silencing optogenetic channel was expressed in Cck cells of mice. […] In the duodenum, there is overlap in cells expressing CCK and the vesicular glutamate transporter 1 (Vglut1), required for release of the neurotransmitter glutamate. To test whether glutamate is required as a signaling molecule for fat transduction to the vagus nerve, a cocktail of glutamate receptor inhibitors was perfused through the duodenum of wild type mice. Blockade of ionotropic and metabotropic glutamate receptors blocked vagal firing elicited by glutamate (FIG. 71). […] In an initial baseline test, mice freely explore an arena for 20 minutes, during which their position in the arena measured. […]

[1] = system: murine small intestinal organoids; experiment: Glutamate release assay on murine small intestinal organoids; assay type: cell-based, mouse; details: sucrose 300 mM, α-MGP 150 mM, sucralose 15 mM; for glutamate concentration in the supernatant after stimulation: PBS control 2.632 ± 1.280; for glutamate release compared to PBS: p < 0.05
Protocol: Slc5a1+ Cck-GFP cells express transcripts for the vesicular glutamate transporters Slc17a6, Slc17a7, Slc17a8 and the excitatory neurotransmitter transporters Slc1a1, Slc1a2, and Slc1a3 (FIG. 4). […] A glutamate release assay was performed on murine small intestinal organoids to determine if glutamate release was stimuli specific (FIG. 24-left). α-MGP was used for a caloric stimulus with no sweet taste, because it is not metabolized once it enters the cell and thus allowed for isolation of cell entry. After nutrient stimulation, the glutamate concentration in the supernatant was 2.632 ± 1.280 ng/µL for PBS control, 13.460 ± 1.724 ng/µL for sucrose [300 mM], 18.183 ± 7.904 ng/µL for α-MGP [150 mM], and 6.053 ± 1.169 ng/µL for sucralose [15 mM].

human duodenal organoids = experiment: Glutamate release assay on human duodenal organoids; assay type: cell-based; details: sucrose 300 mM, α-MGP 150 mM, sucralose 15 mM, n = 1 human
[2] = Two-bottle choice between iso-sweet sucrose and sucralose; assay type: in vivo, mice
Protocol: Domingos et al., Nature Neurosci. […] Behav. […] Bennink et al., J. Nucl. […] Perez et al., Pharmacol. Biochem. Behav. […] Thus, a goal of this study was to determine if synaptic gut-brain neurotransmission drives sugar preference.
CckCRE_NpH3 mice (n = 8) and littermate controls (n = 5) were implanted with the flexible fiberoptic and given the choice between iso-sweet sucrose [300 mM] and sucralose [15 mM] in a one-hour choice assay (FIG. 38 and FIG. 53). […] Whether the caloric neurotransmitter glutamate was contributing to the sucrose preference was tested.

[3] = molecular target: T1, sweet taste receptor T1R2/3 (Mus musculus, UniProt Q925D8+Q925I4); experiment: Receptor pharmacology in whole nerve (vagal) electrophysiology: sweet taste receptor block; assay type: in vivo, mice; details: gurmarin 7 µM
T1 construct: from tissue; host or cells: living mouse: duodenal lumen perfused, cervical vagus nerve recorded
T1 sequence (Q925I4 20-843): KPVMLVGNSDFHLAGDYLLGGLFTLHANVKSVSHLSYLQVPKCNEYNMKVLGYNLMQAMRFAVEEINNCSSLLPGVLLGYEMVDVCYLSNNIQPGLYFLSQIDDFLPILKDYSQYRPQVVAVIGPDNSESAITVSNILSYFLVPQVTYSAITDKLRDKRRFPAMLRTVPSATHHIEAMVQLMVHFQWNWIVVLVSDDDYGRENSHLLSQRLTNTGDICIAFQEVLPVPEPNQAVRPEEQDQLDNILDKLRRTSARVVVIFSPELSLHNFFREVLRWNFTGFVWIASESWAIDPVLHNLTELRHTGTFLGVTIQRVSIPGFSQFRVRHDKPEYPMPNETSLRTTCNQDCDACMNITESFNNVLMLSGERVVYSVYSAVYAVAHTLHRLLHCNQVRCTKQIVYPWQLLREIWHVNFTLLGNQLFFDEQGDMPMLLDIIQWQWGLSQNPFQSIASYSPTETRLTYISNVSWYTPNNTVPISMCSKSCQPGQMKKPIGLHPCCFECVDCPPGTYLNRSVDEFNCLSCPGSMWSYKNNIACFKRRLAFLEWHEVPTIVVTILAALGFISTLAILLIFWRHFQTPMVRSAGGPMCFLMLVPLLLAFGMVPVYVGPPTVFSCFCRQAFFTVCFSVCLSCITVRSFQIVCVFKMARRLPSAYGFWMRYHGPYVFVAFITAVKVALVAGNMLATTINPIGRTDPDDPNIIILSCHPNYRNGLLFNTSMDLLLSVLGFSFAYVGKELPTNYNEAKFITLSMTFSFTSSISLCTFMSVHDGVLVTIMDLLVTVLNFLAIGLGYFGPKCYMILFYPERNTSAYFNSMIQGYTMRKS
T1 sequence (Q925D8 21-858): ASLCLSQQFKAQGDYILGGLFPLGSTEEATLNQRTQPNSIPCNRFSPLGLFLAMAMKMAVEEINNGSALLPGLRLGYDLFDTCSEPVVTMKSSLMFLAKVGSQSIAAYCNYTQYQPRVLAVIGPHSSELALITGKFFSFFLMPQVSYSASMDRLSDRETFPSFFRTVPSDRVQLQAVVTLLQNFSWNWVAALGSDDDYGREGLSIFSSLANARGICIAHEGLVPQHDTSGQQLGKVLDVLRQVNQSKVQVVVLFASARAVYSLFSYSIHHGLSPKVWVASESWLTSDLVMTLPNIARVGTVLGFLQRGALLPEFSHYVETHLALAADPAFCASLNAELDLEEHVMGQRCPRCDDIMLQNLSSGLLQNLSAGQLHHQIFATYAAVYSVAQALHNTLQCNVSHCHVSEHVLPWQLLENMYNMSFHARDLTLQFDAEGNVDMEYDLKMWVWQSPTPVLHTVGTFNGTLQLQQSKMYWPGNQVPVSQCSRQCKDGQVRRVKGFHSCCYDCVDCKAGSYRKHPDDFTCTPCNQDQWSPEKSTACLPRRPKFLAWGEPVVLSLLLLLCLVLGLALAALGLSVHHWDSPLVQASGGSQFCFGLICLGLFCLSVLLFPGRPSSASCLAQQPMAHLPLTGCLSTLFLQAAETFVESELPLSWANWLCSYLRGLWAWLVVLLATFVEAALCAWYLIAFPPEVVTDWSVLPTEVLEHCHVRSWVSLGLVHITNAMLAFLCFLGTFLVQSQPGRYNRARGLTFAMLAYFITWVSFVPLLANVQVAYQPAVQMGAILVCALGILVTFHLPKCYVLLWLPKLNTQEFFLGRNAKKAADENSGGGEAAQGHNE
Excerpt: (FIG. 21 and FIG. 22), showing neuropod cells use two distinct receptor mechanisms to transduce caloric and non-caloric sugar signals to the vagus nerve.

In the case of `Cc1nc(N=Nc2ccc(S(=O)(=O)O)cc2S(=O)(=O)O)c(COP(=O)(O)O)c(C=O)c1O` [PPADS, pyridoxalphosphate-6-azophenyl-2’,4'-disulfonic acid], the “time to peak vagal firing rate to sucralose” value (P2 purinoceptor; sucralose 15 mM) is reported as “prolonged”, the “effect on vagal response to sucralose” value (P2 purinoceptor; sucralose 15 mM, wild-type mice) is reported as “significantly attenuates; also recorded: abolished” and the “effect on vagal response to sucrose” value (P2 purinoceptor; sucrose 300 mM) is reported as “not affected”. The “effect on vagal response to α-MGP” value (P2 purinoceptor; α-MGP 150 mM) was “not affected”.
With `CC1=CC(=O)[N-]S(=O)(=O)O1.[K+]` [acesulfame K] the “vagal response (firing) to intraduodenal sugar vs baseline” value (from here on “vagal response (firing) … vs baseline”) (cervical vagus nerve) was “responds significantly”.
For `O=C(CO)[C@@H](O)[C@H](O)[C@H](O)CO` [fructose], the “vagal response at high concentrations” value (cervical vagus nerve; fructose 600 mM and 1 M, n.s.) was “blunted vagal response” and the “vagal response (firing) … vs baseline” value (cervical vagus nerve) was “no significant”.
In the case of `O=C[C@H](O)[C@@H](O)[C@@H](O)[C@H](O)CO` [galactose], the “vagal response (firing) … vs baseline” value (cervical vagus nerve) is reported as “elicited significant vagal firing”.
With `O=C1NS(=O)(=O)c2ccccc21` [saccharin] the “vagal response (firing) … vs baseline” value (cervical vagus nerve) was “no significant”.
With `OC[C@H]1O[C@@](CO)(O[C@H]2O[C@H](CO)[C@@H](O)[C@H](O)[C@H]2O)[C@@H](O)[C@@H]1O` [sucrose] the “vagal response (firing) … vs baseline” value (cervical vagus nerve) was “responds significantly”, the “vagal response with Cck cells silenced by 532 nm laser” value (duodenal Cck cells) was “eliminated” and the “glutamate concentration in the supernatant after stimulation” value [1] was 13.460 ± 1.724 ng/µL. For the same molecule, the “glutamate release compared to PBS” value [1] was “significantly higher; also recorded: elicit significant release of glutamate”, the “glutamate release compared to PBS control” value (human duodenal organoids) was “elicited glutamate release; also recorded: release significant amounts of glutamate” and the preference for sucrose ([2]; CckCRE_NpH3 mice, control 473 nm laser, one-hour choice) was 90.8% ± 3.74%. The preference for sucrose ([2]; CckCRE_NpH3 mice, silencing 532 nm laser, one-hour choice vs sucralose 15 mM) was 58.9% ± 3.92%, the preference for sucrose ([2]; negative genotype littermate controls, 473 nm) was 84.2% ± 6.30% and the preference for sucrose ([2]; negative genotype littermate controls, 532 nm) was 87.7% ± 2.21.
For `COC1OC(CO)C(O)C(O)C1O` (stereo not drawn) [α-MGP, alpha-methylglucopyranoside], the “vagal response (firing) … vs baseline” value (cervical vagus nerve) was “responds significantly”, the “vagal response with Cck cells silenced by 532 nm laser” value (duodenal Cck cells) was “eliminated” and the “glutamate concentration in the supernatant after stimulation” value [1] was 18.183 ± 7.904 ng/µL. The “glutamate release compared to PBS” value [1] was “significantly higher”, the “glutamate release compared to PBS” value ([1]; listed as aMGP) was “elicit significant release of glutamate” and the “glutamate release compared to PBS control” value (human duodenal organoids) was “elicited glutamate release”. For the same molecule, the “glutamate release compared to PBS control” value (human duodenal organoids; listed as aMGP) was “release significant amounts of glutamate”.
For gurmarin, the “effect on vagal firing elicited by sucralose” value ([3]; sucralose 15 mM) was “abolished; also recorded: inhibited”, the “effect on vagal response to sucrose” value ([3]; sucrose 300 mM) was “did not affect” and the “effect on vagal response to α-MGP” value ([3]; α-MGP 150 mM) was “did not affect”.
